Consider 18 compounds from patent publication US9371280B2, “Substituted pyrrolidine-2-carboxamides” (Hoffmann-La Roche Inc., priority 2012, dated 2016).

Structures can show the parent of a compound that is named as a salt.

The target in the first assay is interaction between p53 and MDM2 proteins (recombinant GST-tagged MDM2) (Homo sapiens, UniProt Q00987). Kind of assay: HTRF assay of inhibition of the p53-MDM2 interaction (GST-MDM2 / biotinylated p53 peptide).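 Note: FRET read-out from Eu-labelled anti-GST antibody to streptavidin-APC, with 90 nM N-terminally biotinylated p53 peptide and 160 ng/ml GST-MDM2 in Tris-borate saline containing 1 mM DTT, 384-well format.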 The format is binding. To be noted: HTRF, 0.02% BSA, 37° C. 1 h.
Chain of interaction between p53 and MDM2 proteins (recombinant GST-tagged MDM2) (Q00987 whole entry): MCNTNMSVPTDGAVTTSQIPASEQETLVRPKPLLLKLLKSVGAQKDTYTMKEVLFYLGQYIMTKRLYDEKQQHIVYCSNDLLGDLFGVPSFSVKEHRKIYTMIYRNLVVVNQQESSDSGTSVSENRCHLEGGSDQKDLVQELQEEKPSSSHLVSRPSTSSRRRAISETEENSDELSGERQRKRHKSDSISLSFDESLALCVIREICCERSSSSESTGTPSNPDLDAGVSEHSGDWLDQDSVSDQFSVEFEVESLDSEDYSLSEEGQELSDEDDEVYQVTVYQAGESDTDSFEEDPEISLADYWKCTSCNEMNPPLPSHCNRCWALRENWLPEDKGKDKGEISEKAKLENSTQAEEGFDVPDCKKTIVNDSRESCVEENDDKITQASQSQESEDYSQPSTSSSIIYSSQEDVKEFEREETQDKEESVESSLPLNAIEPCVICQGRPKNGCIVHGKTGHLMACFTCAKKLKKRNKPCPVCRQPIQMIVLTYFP
Experimental: The ability of the compounds to inhibit the interaction between p53 and MDM2 proteins was measured by an HTRF (homogeneous time-resolved fluorescence) assay in which recombinant GST-tagged MDM2 binds to a peptide that resembles the MDM2-interacting region of p53 (Lane et al.). Binding of GST-MDM2 protein and p53-peptide (biotinylated on its N-terminal end) is registered by the FRET (fluorescence resonance energy transfer) between Europium (Eu)-labeled anti-GST antibody and streptavidin-conjugated Allophycocyanin (APC).
Test is performed in black flat-bottom 384-well plates (Costar) in a total volume of 40 uL containing: 90 nM biotinylate peptide, 160 ng/ml GST-MDM2, 20 nM streptavidin-APC (PerkinElmerWallac), 2 nM Eu-labeled anti-GST-antibody (PerkinElmerWallac), 0.02% bovine serum albumin (BSA), 1 mM dithiothreitol (DTT) and 20 mM Tris-borate saline (TBS) buffer as follows: Add 10 uL of GST-MDM2 (640 ng/ml working solution) in reaction buffer to each well. […] Incubate at 37° C. for 1 h.
Take `COc1cc(C(=O)OCC(=O)NCC(O)CO)ccc1NC(=O)[C@@H]1N[C@@H](CC(C)(C)C)[C@](C#N)(c2ccc(Cl)cc2F)[C@H]1c1cccc(Cl)c1F` (stereo partly drawn) [Example 68, 4-{[(2R,3S,4R,5S)-4-(4-Chloro-2-fluoro-phenyl)-3-(3-chloro-2-fluoro-phenyl)-4-cyano-5-(2,2-dimethyl-propyl)-pyrrolidine-2-carbonyl]-amino}-3-methoxy-benzoic acid (2,3-dihydroxy-propylcarbamoyl)-methyl ester]: the IC50 (in general, the concentration needed to halve the response being measured) is 0.012 µM. `COc1cc(C(=O)OCC(C)N2CCOCC2)ccc1NC(=O)[C@@H]1N[C@@H](CC(C)(C)C)[C@](C#N)(c2ccc(Cl)cc2F)[C@H]1c1cccc(Cl)c1F` (stereo partly drawn) [Example 25, 4-{[(2R,3S,4R,5S)-4-(4-Chloro-2-fluoro-phenyl)-3-(3-chloro-2-fluoro-phenyl)-4-cyano-5-(2,2-dimethyl-propyl)-pyrrolidine-2-carbonyl]-amino}-3-methoxy-benzoic acid 2-morpholin-4-yl-propyl ester, hydrochloride]: the IC50 is 0.0155 µM. Same read-out and setting: the same measure for `COc1cc(C(=O)OCCOCCOCCOCCOCCO)ccc1NC(=O)[C@@H]1N[C@@H](CC(C)(C)C)[C@](C#N)(c2ccc(Cl)cc2F)[C@H]1c1cccc(Cl)c1F` [Example 50, 4-{[(2R,3S,4R,5S)-4-(4-Chloro-2-fluoro-phenyl)-3-(3-chloro-2-fluoro-phenyl)-4-cyano-5-(2,2-dimethyl-propyl)-pyrrolidine-2-carbonyl]-amino}-3-methoxy-benzoic acid 2-(2-{2-[2-(2-hydroxy-ethoxy)-ethoxy]-ethoxy}-ethoxy)-ethyl ester, hydrochloride]: 0.00913 µM; for `COc1cc(C(=O)OCCN(C)C)ccc1NC(=O)[C@@H]1N[C@@H](CC(C)(C)C)[C@](C#N)(c2ccc(Cl)cc2F)[C@H]1c1cccc(Cl)c1F` [Example 7, 2-(Dimethylamino)ethyl 4-((2R,3S,4R,5S)-3-(3-chloro-2-fluorophenyl)-4-(4-chloro-2-fluorophenyl)-4-cyano-5-neopentylpyrrolidine-2-carboxamido)-3-methoxybenzoate]: 0.0146 µM.

For the compound `COc1cc(C(=O)OCCOCCOCCOCCO)ccc1NC(=O)[C@@H]1N[C@@H](CC(C)(C)C)[C@](C#N)(c2ccc(Cl)cc2F)[C@H]1c1cccc(Cl)c1F` [Example 57, 4-{[(2R,3S,4R,5S)-4-(4-Chloro-2-fluoro-phenyl)-3-(3-chloro-2-fluoro-phenyl)-4-cyano-5-(2,2-dimethyl-propyl)-pyrrolidine-2-carbonyl]-amino}-3-methoxy-benzoic acid 2-{2-[2-(2-hydroxy-ethoxy)-ethoxy]-ethoxy}-ethyl ester, hydrochloride], the IC50 was 0.0172 µM. Same read-out and setting: the same measure for `COc1cc(C(=O)N[C@H](CCC(=O)O)C(=O)O)ccc1NC(=O)[C@@H]1N[C@@H](CC(C)(C)C)[C@](C#N)(c2ccc(Cl)cc2F)[C@H]1c1cccc(Cl)c1F` [Example 54, (R)-2-(4-{[(2R,3S,4R,5S)-4-(4-Chloro-2-fluoro-phenyl)-3-(3-chloro-2-fluoro-phenyl)-4-cyano-5-(2,2-dimethyl-propyl)-pyrrolidine-2-carbonyl]-amino}-3-methoxy-benzoylamino)-pentanedioic acid, hydrochloride]: 0.00455 µM; for `COCCOCCOCCOCCOCCOC(=O)c1ccc(NC(=O)[C@@H]2N[C@@H](CC(C)(C)C)[C@](C#N)(c3ccc(Cl)cc3F)[C@H]2c2cccc(Cl)c2F)c(OC)c1` [Example 51, 4-{[(2R,3S,4R,5S)-4-(4-Chloro-2-fluoro-phenyl)-3-(3-chloro-2-fluoro-phenyl)-4-cyano-5-(2,2-dimethyl-propyl)-pyrrolidine-2-carbonyl]-amino}-3-methoxy-benzoic acid 2-(2-{2-[2-(2-methoxy-ethoxy)-ethoxy]-ethoxy}-ethoxy)-ethyl ester, hydrochloride]: 0.01 µM; for `COCCOCCOCCOC(=O)c1ccc(NC(=O)[C@@H]2N[C@@H](CC(C)(C)C)[C@](C#N)(c3ccc(Cl)cc3F)[C@H]2c2cccc(Cl)c2F)c(OC)c1` [Example 48, 4-{[(2R,3S,4R,5S)-4-(4-Chloro-2-fluoro-phenyl)-3-(3-chloro-2-fluoro-phenyl)-4-cyano-5-(2,2-dimethyl-propyl)-pyrrolidine-2-carbonyl]-amino}-3-methoxy-benzoic acid 2-[2-(2-methoxy-ethoxy)-ethoxy]-ethyl ester, hydrochloride]: 0.0135 µM.

Turning to `COc1cc(C(=O)OCCI)ccc1NC(=O)[C@@H]1N[C@@H](CC(C)(C)C)[C@](C#N)(c2ccc(Cl)cc2F)[C@H]1c1cccc(Cl)c1F` [Example 11, 2-Iodoethyl 4-((2R,3S,4R,5S)-3-(3-chloro-2-fluorophenyl)-4-(4-chloro-2-fluorophenyl)-4-cyano-5-neopentylpyrrolidine-2-carboxamido)-3-methoxybenzoate], the IC50 was 0.0117 µM. Consider `COc1cc(C(=O)OCC(=O)NCCOCCOCCOCCO)ccc1NC(=O)[C@@H]1N[C@@H](CC(C)(C)C)[C@](C#N)(c2ccc(Cl)cc2F)[C@H]1c1cccc(Cl)c1F` [Example 75, 4-{[(2R,3S,4R,5S)-4-(4-Chloro-2-fluoro-phenyl)-3-(3-chloro-2-fluoro-phenyl)-4-cyano-5-(2,2-dimethyl-propyl)-pyrrolidine-2-carbonyl]-amino}-3-methoxy-benzoic acid (2-{2-[2-(2-hydroxy-ethoxy)-ethoxy]-ethoxy}-ethylcarbamoyl)-methyl ester], for which the IC50 was 0.0092 µM. On the same count and under the same terms, the same measure for `COc1cc(C(=O)NC(C)CO)ccc1NC(=O)[C@@H]1N[C@@H](CC(C)(C)C)[C@](C#N)(c2ccc(Cl)cc2F)[C@H]1c1cccc(Cl)c1F` (mixture of isomers) [Example 14, Rac-(2R,3S,4R,5S)-4-(4-Chloro-2-fluoro-phenyl)-3-(3-chloro-2-fluoro-phenyl)-4-cyano-5-(2,2-dimethyl-propyl)-pyrrolidine-2-carboxylic acid [4-(2-hydroxy-1-methyl-ethylcarbamoyl)-2-methoxy-phenyl]-amide]: 0.00675 µM. In the case of `COc1cc(C(=O)OCCC(=O)OC(C)(C)C)ccc1NC(=O)[C@@H]1N[C@@H](CC(C)(C)C)[C@](C#N)(c2ccc(Cl)cc2F)[C@H]1c1cccc(Cl)c1F` [Example 37, 4-{[(2R,3S,4R,5S)-4-(4-Chloro-2-fluoro-phenyl)-3-(3-chloro-2-fluoro-phenyl)-4-cyano-5-(2,2-dimethyl-propyl)-pyrrolidine-2-carbonyl]-amino}-3-methoxy-benzoic acid 2-tert-butoxycarbonyl-ethyl ester], the IC50 amounted to 0.016 µM. As for `COc1cc(C(=O)N[C@@H]2[C@@H](O)[C@H](O)[C@@H](CO)O[C@@H]2O)ccc1NC(=O)[C@@H]1N[C@@H](CC(C)(C)C)[C@](C#N)(c2ccc(Cl)cc2F)[C@H]1c1cccc(Cl)c1F` [Example 56, (2R,3S,4R,5S)-4-(4-Chloro-2-fluoro-phenyl)-3-(3-chloro-2-fluoro-phenyl)-4-cyano-5-(2,2-dimethyl-propyl)-pyrrolidine-2-carboxylic acid [2-methoxy-4-((2S,3R,4R,5S,6R)-2,4,5-trihydroxy-6-hydroxymethyl-tetrahydro-pyran-3-ylcarbamoyl)-phenyl]-amide, hydrochloride], the IC50 worked out at 0.00988 µM. As for `COc1cc(C(=O)OCCOC(=O)CNC(=O)OC(C)(C)C)ccc1NC(=O)[C@@H]1N[C@@H](CC(C)(C)C)[C@](C#N)(c2ccc(Cl)cc2F)[C@H]1c1cccc(Cl)c1F` [Example 29, 4-{[(2R,3S,4R,5S)-4-(4-Chloro-2-fluoro-phenyl)-3-(3-chloro-2-fluoro-phenyl)-4-cyano-5-(2,2-dimethyl-propyl)-pyrrolidine-2-carbonyl]-amino}-3-methoxy-benzoic acid 2-(2-tert-butoxycarbonylamino-acetoxy)-ethyl ester], the IC50 amounted to 0.0167 µM.

Turning to `COc1cc(C(=O)OCC(CO)CO)ccc1NC(=O)[C@@H]1N[C@@H](CC(C)(C)C)[C@](C#N)(c2ccc(Cl)cc2F)[C@H]1c1cccc(Cl)c1F` [Example 9, 3-Hydroxy-2-(hydroxymethyl)propyl 4-((2R,3S,4R,5S)-3-(3-chloro-2-fluorophenyl)-4-(4-chloro-2-fluorophenyl)-4-cyano-5-neopentylpyrrolidine-2-carboxamido)-3-methoxybenzoate], the IC50 stood at 0.012 µM. For the compound `COc1cc(C(=O)NCCOCCOCCOCCNC(=O)c2ccc(NC(=O)[C@@H]3N[C@@H](CC(C)(C)C)[C@](C#N)(c4ccc(Cl)cc4F)[C@H]3c3cccc(Cl)c3F)c(OC)c2)ccc1NC(=O)[C@@H]1N[C@@H](CC(C)(C)C)[C@](C#N)(c2ccc(Cl)cc2F)[C@H]1c1cccc(Cl)c1F` [Example 76, (2R,3S,4R,5S)-4-(4-Chloro-2-fluoro-phenyl)-3-(3-chloro-2-fluoro-phenyl)-4-cyano-5-(2,2-dimethyl-propyl)-pyrrolidine-2-carboxylic acid [4-(2-{2-[2-(2-amino-ethoxy)-ethoxy]-ethoxy}-ethylcarbamoyl)-2-methoxy-phenyl]-amide, dimer], the IC50 came to 0.0643 µM. Consider `COc1cc(C(=O)OCCN2CCOCC2)ccc1NC(=O)[C@@H]1N[C@@H](CC(C)(C)C)[C@](C#N)(c2ccc(Cl)cc2F)[C@H]1c1cccc(Cl)c1F` [Example 22, 4-{[(2R,3S,4R,5S)-4-(4-Chloro-2-fluoro-phenyl)-3-(3-chloro-2-fluoro-phenyl)-4-cyano-5-(2,2-dimethyl-propyl)-pyrrolidine-2-carbonyl]-amino}-3-methoxy-benzoic acid 2-morpholin-4-yl-ethyl ester], for which the IC50 turned out to be 0.015 µM.

The assay is the same for the next values; noted with them: read-out: IC50 (uM, 0.02% BSA); HTRF, 0.02% BSA, 37° C. 1 h.
With “4-{[(2R,3S,4R,5S)-4-(4-Chloro-2-fluoro-phenyl)-3-(3-chloro-2-fluoro-phenyl)-4-cyano-5-(2,2-dimethyl-propyl)-pyrrolidine-2-carbonyl]-amino}-3-methoxy-benzoic acid, polyethylene glycol-600 ester, trifluoroacetate salt [Example 44]”, the IC50 amounted to 0.0113 µM.
